This assay has as its system T1, Lathyrus cicera amine oxidase (LCAO).
T1 construct: copper/TPQ enzyme
As to the kind of experiment: coupled peroxidase assay (AAP/DCHBS, […] nm), initial rates. The note with it: pH 7, 20 mM phosphate, 25 °C, air O2. Format: biochemical.
The term Km denotes the concentration of substrate that gives half-maximal velocity. As for `NCCc1ccc2c(c1)OCO2` [8a], the Km is 3.83 mM.
As for `CN(C)CCN` [18a], the Km is 0.23 mM.
For the compound `NCCC1=CCCCC1` [14a], the Km was 1.9 mM.
As for `NCCc1ccc(O)cc1` [1a], the figure is 0.6 mM; as for `CN(C)CCCN` [19a], 8.8 mM; as for `NCCc1ccccc1` [2a], 1.2 mM.
`NCCCn1ccnc1` [16a]: the Km stood at 0.61 mM.
To `COc1cccc(CCN)c1` [7a] belongs 0.47 mM.
To `NCCCN1CCOCC1` [15a] belongs 17 mM.
As for `NCCN1CCCCC1` [11a], the figure is 0.42 mM.
With `NCCc1ccc(Cl)cc1` [10a], the Km came to 3.38 mM.
On to `NCCCN1CCCC1` [17a], for which the Km turned out to be 2.3 mM.
As for `NCCC1CCCCC1` [13a], the Michaelis-Menten constant (Km) was determined as 1.44 mM.
With `COc1ccc(CCN)cc1O` [3a], the Km is 1.58 mM.
To `NCCN1CCOCC1` [12a] belongs 6.46 mM; to `COc1ccc(CCN)cc1OC` [5a], 1 mM; to `COc1ccc(CCN)cc1` [6a], 5.37 mM.
In the case of `COc1cc(CCN)ccc1O` [4a], the Km was 1.31 mM.

Source of the values: article PMC8533949, “Biocatalytic Production of Aldehydes: Exploring the Potential of Lathyrus cicera Amine Oxidase” (Biomolecules, 2021).
